The values that follow come from ChEMBL document CHEMBL1201862, “PubChem BioAssay data set” (2004).

Test systems include RPMI-8226; U-251; HCT-116; KM-20L2; CAKI-1; UACC-62; SK-MEL-2; 786-0; CCRF-CEM; HT-29; IGROV-1; SNB-75; HOP-92; SNB-78; OVCAR-5; OVCAR-3; DU-145; Hs-578T; T47D.
Test in all cases: NCI tumour cell line growth inhibition, 48 h

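Dose response: 5 concentrations. Exposure: 48 h. Format: 96-well plates. Endpoint: linear interpolation; highest concentration if not reached. Here, GI50 denotes the concentration required for 50% inhibition of growth.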 The source made the active and inactive calls. Cut-off read from the data, not from the text of the source: active = GI50 up to about 1.1 µM and inactive = higher.

In the case of `CNS(=O)(=O)NN(C)S(=O)(=O)c1ccc2ccccc2c1`, the GI50 in the experiment on RPMI-8226, in the experiment on U-251, with HCT-116, in the experiment on KM-20L2, in the experiment on CAKI-1 and in the experiment with UACC-62 was > 100 µM (inactive) each time. For the same compound, the GI50 in the experiment on SK-MEL-2, in the experiment with 786-0, in the experiment on CCRF-CEM, with HT-29, in the experiment with IGROV-1 and in the experiment on SNB-75 was > 100 µM (inactive) throughout.

Take `CN(/C(=N\O)c1ccccc1)c1ccccc1`: the GI50 was 17.2 µM (inactive) in the experiment with U-251; 46.7 µM (inactive) in the experiment on HCT-116; 17.3 µM (inactive) in the experiment on KM-20L2; 37.2 µM (inactive) in the experiment on CAKI-1; 5.12 µM (inactive) with HOP-92; 27.8 µM (inactive) with SK-MEL-2. Moreover, the GI50 in the experiment on 786-0 is 21.7 µM (inactive); in the experiment on SNB-78, 28.4 µM (inactive); in the experiment on OVCAR-5 it was 88.9 µM (inactive); with OVCAR-3 it was 21.7 µM (inactive); with HT-29, 30.5 µM (inactive); in the experiment on SNB-75, 13.5 µM (inactive).

As to `O=CC(NC(=O)N(CCCl)N=O)C(O)C(O)C(O)CO` (stereo not given), the GI50 was 851 µM (inactive) in the experiment on RPMI-8226; 179 µM (inactive) with U-251; > 1250 µM (inactive) in the experiment on KM-20L2; 798 µM (inactive) in the experiment with CAKI-1; 47 µM (inactive) with UACC-62; 718 µM (inactive) in the experiment on SK-MEL-2. For the same compound, the GI50 was 553 µM (inactive) with DU-145; 56.6 µM (inactive) with 786-0; > 955 µM (inactive) with Hs-578T; 348 µM (inactive) in the experiment with CCRF-CEM; 1140 µM (inactive) with OVCAR-5; 679 µM (inactive) in the experiment with T47D. Further, the GI50 was > 1250 µM (inactive) in the experiment on OVCAR-3, > 1250 µM (inactive) in the experiment on HT-29, 1000 µM (inactive) in the experiment with IGROV-1 and 262 µM (inactive) in the experiment with SNB-75.

In the case of `S=C(/N=c1\sc(NCc2ccccc2)nc2sc3c(c12)CCN(N1CCc2c(sc4nc(NCc5ccccc5)s/c(=N\C(=S)NCc5ccccc5)c24)C1)C3)NCc1ccccc1`, the GI50 in the experiment on RPMI-8226 is 14.6 µM (inactive); in the experiment on U-251, 10.5 µM (inactive); with HCT-116, 7.74 µM (inactive); with CAKI-1 it was 21.9 µM (inactive); in the experiment on HOP-92, 39.4 µM (inactive); with UACC-62, 38.6 µM (inactive). In addition, the GI50 with SK-MEL-2 is 58.3 µM (inactive); in the experiment with DU-145, 45 µM (inactive); with 786-0, 9.64 µM (inactive); with Hs-578T it was 54.3 µM (inactive); in the experiment with CCRF-CEM it was 2.56 µM (inactive); in the experiment on OVCAR-5 it was 45 µM (inactive). Also, the GI50 is 21.2 µM (inactive) in the experiment with T47D; 20.1 µM (inactive) in the experiment on OVCAR-3; 22.6 µM (inactive) in the experiment on HT-29; 28 µM (inactive) in the experiment on IGROV-1; 17.4 µM (inactive) with SNB-75.

For `CC[C@@]1(C)CCC2c3ccc(O)cc3CC[C@H]2C1C` (stereo not given in full), the GI50 with RPMI-8226 was 19.4 µM (inactive); in the experiment on U-251, 17 µM (inactive); with HCT-116, 17.7 µM (inactive); in the experiment on CAKI-1, 21.2 µM (inactive); with HOP-92 it was 6.85 µM (inactive); with UACC-62 it was 14.7 µM (inactive). Moreover, the GI50 in the experiment with SK-MEL-2 is 18.6 µM (inactive); in the experiment with DU-145 it was 16.6 µM (inactive); in the experiment with 786-0 it was 16.2 µM (inactive); with Hs-578T, 18.8 µM (inactive); in the experiment with CCRF-CEM, 16.5 µM (inactive); with OVCAR-5, 18.8 µM (inactive). The GI50 in the experiment with T47D was 18.1 µM (inactive); in the experiment on OVCAR-3 it was 20.6 µM (inactive); with HT-29 it was 18 µM (inactive); in the experiment on IGROV-1 it was 20.8 µM (inactive); in the experiment with SNB-75, 19.9 µM (inactive).

Turning to `O=C1/C(=C/c2ccccc2)CN(C(=O)OCC(Cl)(Cl)Cl)C/C1=C\c1ccccc1`, the GI50 in the experiment on RPMI-8226 is 0.0394 µM (active); in the experiment with U-251, 1.68 µM (inactive); in the experiment with HCT-116 it was 1.33 µM (inactive); in the experiment with KM-20L2, 2.44 µM (inactive); in the experiment with UACC-62, 2.71 µM (inactive); in the experiment on SK-MEL-2, 4.89 µM (inactive). The GI50 in the experiment with 786-0 is 2.14 µM (inactive); with CCRF-CEM, 1.71 µM (inactive); with SNB-78, 1.34 µM (inactive); in the experiment on OVCAR-5 it was 5.52 µM (inactive); in the experiment on OVCAR-3 it was 4.19 µM (inactive); in the experiment on HT-29, 1.6 µM (inactive). In addition, the figures for the GI50 with IGROV-1 and in the experiment with SNB-75 were 3.54 µM (inactive) and 3.86 µM (inactive), respectively.

Take `COC(=O)/C=C(/C(=O)OC)c1c(C)cc2c(C)cc(C)cc(C)c1-2`: the GI50 is 9.79 µM (inactive) in the experiment with RPMI-8226; 8.26 µM (inactive) with U-251; 4.26 µM (inactive) in the experiment with HCT-116; 32.6 µM (inactive) in the experiment with CAKI-1; 31.6 µM (inactive) in the experiment on HOP-92; 9.77 µM (inactive) in the experiment on UACC-62. The GI50 was 20 µM (inactive) with SK-MEL-2; 22.4 µM (inactive) in the experiment with DU-145; 15.2 µM (inactive) with 786-0; 11 µM (inactive) in the experiment on Hs-578T; 9.18 µM (inactive) with CCRF-CEM; 18.9 µM (inactive) in the experiment with OVCAR-5. For the same compound, the GI50 with T47D is 44.1 µM (inactive); in the experiment with OVCAR-3 it was 10.2 µM (inactive); with HT-29 it was 7.41 µM (inactive); in the experiment on IGROV-1 it was 23.3 µM (inactive); in the experiment with SNB-75 it was 16.7 µM (inactive).

`COC(=O)N/N=C(\C)C(CN1CCOCC1)C(c1ccccc1)c1cc2ccccc2oc1=O` (stereo not given): the GI50 is 25 µM (inactive) in the experiment with RPMI-8226; > 100 µM (inactive) in the experiment with U-251; > 100 µM (inactive) in the experiment with HCT-116; > 100 µM (inactive) with CAKI-1; 30.5 µM (inactive) in the experiment with HOP-92; > 100 µM (inactive) in the experiment with UACC-62. Moreover, the GI50 in the experiment with SK-MEL-2 is > 100 µM (inactive); in the experiment on DU-145 it was > 100 µM (inactive); with 786-0, > 100 µM (inactive); with Hs-578T, > 100 µM (inactive); in the experiment on CCRF-CEM, 44.6 µM (inactive); in the experiment on OVCAR-5 it was > 100 µM (inactive). The GI50 in the experiment with T47D, with OVCAR-3, with HT-29, with IGROV-1 and in the experiment on SNB-75 was > 100 µM (inactive) throughout.

Consider `CSc1ccc2c(c1)N(CCCN(C)C)c1ccccc1S2`, for which the GI50 is 12.2 µM (inactive) in the experiment on RPMI-8226; 13.5 µM (inactive) with U-251; 12.7 µM (inactive) in the experiment with HCT-116; 8.67 µM (inactive) in the experiment on CAKI-1; 11.7 µM (inactive) in the experiment with HOP-92; 10.4 µM (inactive) in the experiment on UACC-62. Further, the GI50 was 15.6 µM (inactive) in the experiment on SK-MEL-2; 15.6 µM (inactive) with DU-145; 13.7 µM (inactive) in the experiment on 786-0; 11 µM (inactive) with Hs-578T; 5.89 µM (inactive) with CCRF-CEM; 15.3 µM (inactive) in the experiment on OVCAR-5. Besides, the GI50 in the experiment with T47D is 10.4 µM (inactive); with OVCAR-3, 12.8 µM (inactive); with HT-29 it was 6.78 µM (inactive); in the experiment on IGROV-1 it was 13.2 µM (inactive); in the experiment on SNB-75, 6.97 µM (inactive).

As to `Nc1ncnc2c1ncn2C1C=CC(COS(N)(=O)=O)C1` (stereo not given), the GI50 was 2.93 µM (inactive) with RPMI-8226; 5.26 µM (inactive) in the experiment with U-251; 9.38 µM (inactive) in the experiment on HCT-116; 3.28 µM (inactive) with CAKI-1; 15.7 µM (inactive) with HOP-92; 20.6 µM (inactive) in the experiment on UACC-62. Further, the GI50 with SK-MEL-2 was 39.3 µM (inactive); in the experiment with DU-145 it was 66.8 µM (inactive); with 786-0, 18.5 µM (inactive); in the experiment on Hs-578T, 15.6 µM (inactive); in the experiment on CCRF-CEM, 18.4 µM (inactive); with OVCAR-5, 64.1 µM (inactive). Further, the GI50 in the experiment with T47D is 8.81 µM (inactive); in the experiment on OVCAR-3, 31 µM (inactive); in the experiment with HT-29 it was 14.9 µM (inactive); with IGROV-1, 34.2 µM (inactive); in the experiment on SNB-75 it was 21.9 µM (inactive).

Turning to `O=C(O)c1ccc(O)c(/N=N/c2cc(S(=O)(=O)O)c3ccccc3c2O)c1`, the GI50 is > 100 µM (inactive) in the experiment on RPMI-8226; > 100 µM (inactive) in the experiment with U-251; 20 µM (inactive) with HCT-116; > 100 µM (inactive) in the experiment with KM-20L2; 54.3 µM (inactive) in the experiment with CAKI-1; > 100 µM (inactive) in the experiment on HOP-92. For the same compound, the GI50 in the experiment with SK-MEL-2 was > 10 µM (inactive); in the experiment on 786-0 it was > 100 µM (inactive); in the experiment on SNB-78, > 100 µM (inactive); with OVCAR-5, > 100 µM (inactive); with OVCAR-3, 92.3 µM (inactive); in the experiment with HT-29 it was 50.7 µM (inactive). Moreover, the GI50 with IGROV-1 was 45.1 µM (inactive); in the experiment on SNB-75, > 100 µM (inactive).

With `COC(=O)c1cccc(COc2ccc([N+](=O)[O-])cc2Cl)c1`, the GI50 in the experiment with RPMI-8226 is 89.7 µM (inactive); in the experiment on U-251 it was 83.2 µM (inactive); with HCT-116, > 100 µM (inactive); in the experiment with CAKI-1, 56 µM (inactive); in the experiment with HOP-92, 44.5 µM (inactive); in the experiment with UACC-62 it was 43.4 µM (inactive). Moreover, the GI50 in the experiment with SK-MEL-2 was > 100 µM (inactive); with DU-145 it was > 100 µM (inactive); in the experiment with 786-0, > 100 µM (inactive); in the experiment with Hs-578T it was 60.1 µM (inactive); in the experiment with CCRF-CEM, 63.4 µM (inactive); in the experiment on OVCAR-5, > 100 µM (inactive). The GI50 in the experiment with T47D was > 100 µM (inactive); in the experiment on OVCAR-3, 63.4 µM (inactive); in the experiment on HT-29 it was > 100 µM (inactive); with IGROV-1, > 100 µM (inactive); in the experiment on SNB-75, > 100 µM (inactive).

In the case of `CCOC(=O)NC(=O)c1cn(C2OC(CO)C(O)C2O)c(=O)[nH]c1=O` (stereo not given), the GI50 with RPMI-8226, in the experiment with U-251, in the experiment on HCT-116, with KM-20L2, with CAKI-1 and in the experiment on UACC-62 was > 100 µM (inactive) throughout. In addition, the GI50 with SK-MEL-2, with 786-0, in the experiment on OVCAR-5, in the experiment on OVCAR-3, in the experiment with HT-29 and in the experiment on IGROV-1 was > 100 µM (inactive) each time. Also, in the experiment with SNB-75, the GI50 was > 100 µM (inactive).
